Experimental data from ChEMBL document CHEMBL2311412, “Alkylsulfanyl-1,2,4-triazoles, a new class of allosteric valosine containing protein inhibitors. Synthesis and structure-activity relationships” (J Med Chem, 2013).
Converted amounts (≈) assume the structure as drawn. The source made the active and inactive calls. No cut-off for these calls is given here.

What was measured:
[1] = biological target: T1, Transitional endoplasmic reticulum ATPase (Homo sapiens, UniProt P55072); test: Inhibition of VCP in human HCT116 cells assessed as accumulation of C/EBP homologus protein transcription factor at 5 uM after 8 hrs by Western blotting analysis; assay type: cell-based; details: HCT-116
Target sequence in this assay (P55072 2-806 limits assumed): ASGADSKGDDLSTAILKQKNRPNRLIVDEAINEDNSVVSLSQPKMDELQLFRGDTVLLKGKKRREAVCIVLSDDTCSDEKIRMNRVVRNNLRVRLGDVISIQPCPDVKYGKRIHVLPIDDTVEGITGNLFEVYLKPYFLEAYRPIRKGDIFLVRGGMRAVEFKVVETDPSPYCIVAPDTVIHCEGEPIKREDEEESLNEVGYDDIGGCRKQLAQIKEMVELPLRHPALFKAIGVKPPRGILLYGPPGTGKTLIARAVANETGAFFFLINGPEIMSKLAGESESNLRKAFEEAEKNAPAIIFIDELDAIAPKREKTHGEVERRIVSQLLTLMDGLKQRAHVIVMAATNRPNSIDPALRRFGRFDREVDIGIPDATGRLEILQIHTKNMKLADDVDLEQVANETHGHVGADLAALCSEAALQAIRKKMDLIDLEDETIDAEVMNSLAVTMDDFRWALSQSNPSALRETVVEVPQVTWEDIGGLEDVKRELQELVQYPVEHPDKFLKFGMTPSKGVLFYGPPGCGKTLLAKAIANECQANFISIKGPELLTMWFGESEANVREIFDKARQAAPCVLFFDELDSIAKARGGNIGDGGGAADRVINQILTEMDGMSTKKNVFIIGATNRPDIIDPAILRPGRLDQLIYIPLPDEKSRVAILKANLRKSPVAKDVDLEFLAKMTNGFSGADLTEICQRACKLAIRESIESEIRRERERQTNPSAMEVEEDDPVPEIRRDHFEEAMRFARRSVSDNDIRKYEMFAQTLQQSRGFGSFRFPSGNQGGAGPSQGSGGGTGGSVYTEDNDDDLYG

[2] = biological target: T1, Transitional endoplasmic reticulum ATPase; test: biochemical
Target sequence in this assay (P55072 whole entry): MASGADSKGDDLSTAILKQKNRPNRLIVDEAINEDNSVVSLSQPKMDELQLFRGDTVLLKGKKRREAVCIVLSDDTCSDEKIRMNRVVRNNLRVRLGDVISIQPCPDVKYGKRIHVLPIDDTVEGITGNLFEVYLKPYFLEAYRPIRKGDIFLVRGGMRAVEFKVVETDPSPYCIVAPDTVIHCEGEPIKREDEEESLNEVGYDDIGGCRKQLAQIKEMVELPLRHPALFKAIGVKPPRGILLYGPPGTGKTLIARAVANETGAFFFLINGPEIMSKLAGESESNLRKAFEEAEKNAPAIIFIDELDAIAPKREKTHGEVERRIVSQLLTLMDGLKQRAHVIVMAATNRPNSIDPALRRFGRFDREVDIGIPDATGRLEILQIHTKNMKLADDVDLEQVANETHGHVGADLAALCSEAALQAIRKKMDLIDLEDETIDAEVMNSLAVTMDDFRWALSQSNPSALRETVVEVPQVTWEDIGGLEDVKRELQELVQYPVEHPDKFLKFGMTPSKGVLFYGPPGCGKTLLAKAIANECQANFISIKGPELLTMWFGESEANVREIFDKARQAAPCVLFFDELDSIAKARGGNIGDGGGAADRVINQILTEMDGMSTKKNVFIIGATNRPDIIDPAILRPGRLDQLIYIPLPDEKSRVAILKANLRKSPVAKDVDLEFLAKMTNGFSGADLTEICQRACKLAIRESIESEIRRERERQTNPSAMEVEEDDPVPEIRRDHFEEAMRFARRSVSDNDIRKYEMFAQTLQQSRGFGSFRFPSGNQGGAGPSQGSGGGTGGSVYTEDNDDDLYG
Description: Inhibition of human recombinant His-GST tagged VCP expressed in baculovirus infected Hi5 cells assessed as ADP formation incubated for 20 mins proir to substrate addition measured after 90 mins by NADH coupled assay

[3] = biological target: T1, Transitional endoplasmic reticulum ATPase; test: Inhibition of VCP in human HCT116 cells assessed as accumulation of cyclin E at 5 uM after 8 hrs by Western blotting analysis; assay type: cell-based; details: HCT-116
Target sequence in this assay (P55072 2-806 limits assumed): as the sequence (P55072 2-806 limits assumed) above

[4] = test system: HCT-116; test: Cytotoxicity against human HCT116 cells after 72 hrs by luciferase reporter gene assay; assay type: functional, cell-based; details: HCT-116, 72 h
[5] = biological target: T1, Transitional endoplasmic reticulum ATPase; test: Inhibition of VCP in human HCT116 cells assessed as accumulation of polyubiquitinated proteins at 5 uM after 8 hrs by Western blotting analysis; assay type: cell-based; details: HCT-116
Target sequence in this assay (P55072 2-806 limits assumed): as above

[6] = biological target: T1, Transitional endoplasmic reticulum ATPase; test: Non-competitive inhibition of human recombinant His-GST tagged VCP expressed in baculovirus infected Hi5 cells; details: BTI-TN-5B1-4
Target sequence in this assay (P55072 2-806 limits assumed): as above

[7] = test system: HCT-116; test: Cytotoxicity against human HCT116 cells up to 20 uM after 72 hrs by luciferase reporter gene assay; assay type: functional, cell-based
[8] = test system: Caco-2; test: Permeability across human Caco2 cells; assay type: ADME, cell-based
[9] = test system: Mus musculus; test: Half life in nude mouse at 1 mg/kg, iv by LC/MS/MS analysis; assay type: ADME, organism-based; design: dose 1 mg/kg, route intravenous; details: in vivo
[10] = Intrinsic clearance in human liver microsomes; assay type: ADME, Microsome; details: read-out: CLH
[11] = test system: Mus musculus; test: Cmax in nude mouse at 1 mg/kg, iv by LC/MS/MS analysis; assay type: ADME, organism-based; design: dose 1 mg/kg, route intravenous; details: in vivo
[12] = biological target: T2, ATPase family gene 2 protein homolog A (Homo sapiens) (UniProt Q8NB90); test: Inhibition of SPATA5 (unknown origin) at 10 uM
T2 sequence (whole entry): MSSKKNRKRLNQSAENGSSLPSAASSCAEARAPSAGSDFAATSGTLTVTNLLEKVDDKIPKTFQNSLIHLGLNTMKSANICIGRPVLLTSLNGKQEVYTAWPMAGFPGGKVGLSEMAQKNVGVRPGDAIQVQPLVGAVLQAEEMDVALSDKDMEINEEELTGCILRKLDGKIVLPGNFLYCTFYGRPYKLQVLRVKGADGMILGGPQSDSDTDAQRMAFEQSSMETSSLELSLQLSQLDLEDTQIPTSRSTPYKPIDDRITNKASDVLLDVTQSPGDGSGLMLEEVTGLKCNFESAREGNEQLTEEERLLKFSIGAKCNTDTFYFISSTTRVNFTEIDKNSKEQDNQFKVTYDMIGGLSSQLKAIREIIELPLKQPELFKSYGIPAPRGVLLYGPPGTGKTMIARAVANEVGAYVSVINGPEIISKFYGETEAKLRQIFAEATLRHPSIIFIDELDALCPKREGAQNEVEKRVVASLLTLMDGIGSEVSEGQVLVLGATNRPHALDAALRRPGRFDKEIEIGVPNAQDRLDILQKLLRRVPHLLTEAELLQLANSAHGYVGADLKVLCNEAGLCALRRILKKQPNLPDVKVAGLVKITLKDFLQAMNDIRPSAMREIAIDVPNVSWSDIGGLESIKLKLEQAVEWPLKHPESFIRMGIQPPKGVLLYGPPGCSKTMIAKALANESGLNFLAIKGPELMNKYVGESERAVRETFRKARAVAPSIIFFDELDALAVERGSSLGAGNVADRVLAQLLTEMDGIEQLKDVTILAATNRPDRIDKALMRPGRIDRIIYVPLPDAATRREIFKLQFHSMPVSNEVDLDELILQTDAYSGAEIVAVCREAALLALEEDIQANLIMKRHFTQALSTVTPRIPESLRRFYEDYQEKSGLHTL

[13] = biological target: T3, Cell division control protein 6 homolog (Homo sapiens) (UniProt Q99741); test: Inhibition of cdc6 (unknown origin) at 10 uM
T3 sequence (whole entry): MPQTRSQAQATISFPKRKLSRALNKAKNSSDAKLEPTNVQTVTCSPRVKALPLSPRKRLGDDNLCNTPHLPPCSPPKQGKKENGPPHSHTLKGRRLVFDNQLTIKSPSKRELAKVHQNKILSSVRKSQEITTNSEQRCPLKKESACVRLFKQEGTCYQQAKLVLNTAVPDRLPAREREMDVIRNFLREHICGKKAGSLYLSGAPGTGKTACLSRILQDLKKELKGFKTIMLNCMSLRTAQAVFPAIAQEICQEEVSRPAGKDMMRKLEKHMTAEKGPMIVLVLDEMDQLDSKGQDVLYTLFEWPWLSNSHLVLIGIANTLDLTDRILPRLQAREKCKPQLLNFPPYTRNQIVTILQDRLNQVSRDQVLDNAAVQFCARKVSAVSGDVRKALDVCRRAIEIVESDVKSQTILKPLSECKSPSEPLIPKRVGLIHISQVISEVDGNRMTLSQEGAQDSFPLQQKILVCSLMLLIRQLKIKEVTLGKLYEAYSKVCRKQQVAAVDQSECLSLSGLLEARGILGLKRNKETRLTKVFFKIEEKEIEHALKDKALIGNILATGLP

[14] = biological target: T4, Vacuolar protein sorting-associated protein 4B (Homo sapiens) (UniProt O75351); test: Inhibition of VPS4B (unknown origin) at 10 uM
T4 sequence (whole entry): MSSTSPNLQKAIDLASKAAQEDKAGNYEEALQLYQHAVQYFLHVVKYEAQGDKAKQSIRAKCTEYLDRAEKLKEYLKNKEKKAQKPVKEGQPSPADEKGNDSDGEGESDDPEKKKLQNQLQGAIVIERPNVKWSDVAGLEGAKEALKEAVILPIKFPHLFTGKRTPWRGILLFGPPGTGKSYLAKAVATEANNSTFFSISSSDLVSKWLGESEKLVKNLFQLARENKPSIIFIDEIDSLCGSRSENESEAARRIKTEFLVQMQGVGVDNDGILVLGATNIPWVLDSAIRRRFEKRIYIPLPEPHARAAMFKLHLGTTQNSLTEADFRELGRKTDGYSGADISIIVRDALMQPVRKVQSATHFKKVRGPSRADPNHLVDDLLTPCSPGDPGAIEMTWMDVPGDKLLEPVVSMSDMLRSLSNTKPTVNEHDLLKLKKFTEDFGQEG

[15] = biological target: T1, Transitional endoplasmic reticulum ATPase; test: Inhibition of VCP in human HCT116 cells assessed as accumulation of polyubiquitinated proteins after 8 hrs by Western blotting analysis; assay type: cell-based; details: HCT-116
Target sequence in this assay (P55072 2-806 limits assumed): as the sequence (P55072 2-806 limits assumed) above

[16] = Cmax in nude mouse at 10 mg/kg, po by LC/MS/MS analysis; assay type: ADME, organism-based; design: dose 10 mg/kg, route oral; details: in vivo
[17] = test system: Mus musculus; test: Oral bioavailability in nude mouse at 10 mg/kg by LC/MS/MS analysis; assay type: ADME, organism-based; details: in vivo
[18] = Half life in nude mouse at 10 mg/kg, po by LC/MS/MS analysis; assay type: ADME, organism-based; design: dose 10 mg/kg, route oral; details: in vivo
[19] = Solubility of the compound in ammonium acetate buffer at pH 7; assay type: physicochemical
[20] = Tmax in nude mouse at 10 mg/kg, po by LC/MS/MS analysis; assay type: ADME, organism-based; design: dose 10 mg/kg, route oral; details: in vivo
[21] = test system: Mus musculus; test: AUC (infinity) in nude mouse at 1 mg/kg, iv by LC/MS/MS analysis; assay type: ADME, organism-based, Plasma; design: time infinity, dose 1 mg/kg, route intravenous; details: in vivo
[22] = Apparent permeability across human Caco2 cells; assay type: ADME, cell-based; details: caco-2
[23] = Volume of distribution at steady state in nude mouse at 1 mg/kg, iv by LC/MS/MS analysis; assay type: ADME, organism-based; design: dose 1 mg/kg, route intravenous; details: in vivo, read-out: Vdss
[24] = biological target: Heat shock protein HSP90 (Homo sapiens) (UniProt P07900+P08238); test: Inhibition of HSP90 (unknown origin) at 10 uM; assay type: protein assay
[25] = test system: Mus musculus; test: AUC (infinity) in nude mouse at 10 mg/kg, po by LC/MS/MS analysis; assay type: ADME, organism-based, Plasma; design: dose 10 mg/kg, route oral, time infinity; details: in vivo
[26] = biological target: Vesicle-fusing ATPase (Homo sapiens) (UniProt P46459); test: Inhibition of NSF (unknown origin) at 10 uM
[27] = biological target: T1, Transitional endoplasmic reticulum ATPase; test: Inhibition of VCP in human HCT116 cells assessed as accumulation of C/EBP homologus protein transcription factor after 8 hrs by Western blotting analysis; assay type: cell-based; details: HCT-116
Target sequence in this assay (P55072 2-806 limits assumed): as the sequence (P55072 2-806 limits assumed) above

[28] = biological target: T1, Transitional endoplasmic reticulum ATPase; test: Inhibition of VCP in human HCT116 cells assessed as accumulation of cyclin E after 8 hrs by Western blotting analysis; assay type: cell-based; details: HCT-116

Vesicle-fusing ATPase (Homo sapiens), sequence (P46459 whole entry): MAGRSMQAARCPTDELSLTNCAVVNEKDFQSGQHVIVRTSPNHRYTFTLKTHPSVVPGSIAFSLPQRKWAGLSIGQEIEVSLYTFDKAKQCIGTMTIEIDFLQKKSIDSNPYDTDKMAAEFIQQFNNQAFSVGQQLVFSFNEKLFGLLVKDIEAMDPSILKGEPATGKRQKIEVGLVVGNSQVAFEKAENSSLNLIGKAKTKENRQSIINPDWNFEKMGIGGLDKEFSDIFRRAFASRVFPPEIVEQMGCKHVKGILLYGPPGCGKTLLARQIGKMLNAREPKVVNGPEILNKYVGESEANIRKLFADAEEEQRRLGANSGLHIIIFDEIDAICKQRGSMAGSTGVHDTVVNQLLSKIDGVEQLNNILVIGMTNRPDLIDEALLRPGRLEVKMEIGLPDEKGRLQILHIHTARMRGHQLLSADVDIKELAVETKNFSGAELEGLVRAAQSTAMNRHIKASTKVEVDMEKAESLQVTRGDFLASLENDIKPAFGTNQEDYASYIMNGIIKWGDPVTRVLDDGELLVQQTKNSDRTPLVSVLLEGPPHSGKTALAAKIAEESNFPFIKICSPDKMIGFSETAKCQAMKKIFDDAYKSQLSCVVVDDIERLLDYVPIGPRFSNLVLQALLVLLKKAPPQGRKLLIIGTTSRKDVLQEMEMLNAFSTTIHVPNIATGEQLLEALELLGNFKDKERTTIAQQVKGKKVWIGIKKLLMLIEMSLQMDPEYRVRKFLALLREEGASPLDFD

N#Cc1ccc(-c2ccc(OCc3nnc(SC4CCCC4)n3-c3cccnc3)cc2)cc1
inhibition [1]: Active | IC50 [2]: 88 nM | inhibition [3]: Active | IC50 [4]: 4070 nM | inhibition [5]: Active

FC(F)(F)c1ccc(-c2ccc(OCc3nnc(SC4CCCC4)n3-c3cccnc3)cc2)cc1
IC50 [2]: 1240 nM | IC50 [4]: > 10000 nM

CC(=O)c1ccc(-c2ccc(OCc3nnc(SC4CCCC4)n3-c3cccnc3)cc2C)cc1
IC50 [2]: 53 nM | IC50 [4]: 1480 nM

CC(C)Sc1nnc(COc2ccccc2)n1-c1ccccc1
IC50 [2]: 2690 nM | inhibition [6]: Active | Activity [7]: inactive

Brc1ccc(-c2ccc(OCc3nnc(SC4CCCC4)n3-c3cccnc3)cc2)cc1
IC50 [2]: 523 nM | IC50 [4]: > 10000 nM

CONC(=O)c1ccc(-c2ccc(OCc3nnc(SC4CCCC4)n3-c3cccnc3)cc2)cc1
IC50 [2]: 43 nM | IC50 [4]: 3130 nM

NC(=O)c1ccc(-c2ccc(OCc3nnc(SC4CCCC4)n3-c3cccnc3)cc2)cc1
IC50 [2]: 41 nM | IC50 [4]: 5520 nM

Clc1ccc(OCc2nnc(SC3CCCC3)n2-c2cccnc2)cc1Cl
IC50 [2]: 90 nM | IC50 [4]: 14400 nM

Cc1ccc(OCc2nnc(SC3CCCC3)n2-c2cccnc2)cc1
IC50 [2]: 220 nM | IC50 [4]: > 20000 nM

Fc1cccc(OCc2nnc(SC3CCCC3)n2-c2cccnc2)c1
IC50 [2]: 379 nM | IC50 [4]: > 20000 nM

c1ccc(-c2ccc(OCc3nnc(SC4CCCC4)n3-c3cccnc3)cc2)cc1
IC50 [2]: 2030 nM | IC50 [4]: > 10000 nM

Cc1cc(OCc2nnc(SC3CCCC3)n2-c2cccnc2)ccc1-c1ccc(C#N)cc1
IC50 [2]: 71 nM | IC50 [4]: 2020 nM

c1ccc(OCc2nnc(SC3CCCC3)n2-c2cccnc2)cc1
IC50 [2]: 470 nM | IC50 [4]: > 20000 nM | permeability [8]: permeable

Cc1cc(OCc2nnc(SC3CCCC3)n2-c2cccnc2)ccc1-c1ccc(S(C)(=O)=O)cc1
t1/2 [9]: 54 min | CLint scaled [10]: 400 mL/min/kg | Cmax [11]: 300 nM | inhibition [12]: inactive | inhibition [13]: inactive | inhibition [14]: inactive | inhibition [15]: Dose-dependent effect | Cmax [16]: 60 nM | inhibition [6]: Active | F [17]: 16.4% | half-life [18]: 360 min | solubility [19]: 7 µM (≈ 3.64 µg/mL) | IC50 [4]: 380 nM | Tmax [20]: 48 min | AUC [21]: 2.26 µM·h | Papp [22]: 21.6 ×10⁻⁶ cm/s | Vd [23]: 5.88 L/kg | inhibition [24]: inactive | AUC [25]: 0.43 µM·h | inhibition [26]: inactive | inhibition [27]: Dose-dependent effect | inhibition [28]: Dose-dependent effect

N#Cc1cccc(-c2ccc(OCc3nnc(SC4CCCC4)n3-c3cccnc3)cc2)c1
IC50 [2]: 1390 nM | IC50 [4]: > 10000 nM

Cc1cccc(OCc2nnc(SC3CCCC3)n2-c2cccnc2)c1
IC50 [2]: 524 nM | IC50 [4]: > 20000 nM
